Records with an inconclusive call do not appear. The source made the active and inactive calls.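 The calls were made as follows: active = compounds lowering the luciferase signal with a fitted half-maximal dose at most twice their top valid dose (cut at about 30 µM in these data); inconclusive = flat fits with moderate signal loss, or poor fits; inactive = the rest.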 Where only a bound is given, the exact number is not on record here.

This experiment concerns Clone20 osteoblast Shn3 3'UTR firefly luciferase, 24 h. Briefly: Schnurri-3 3'UTR-luciferase signal suppressors – cell-based, Clone20 osteoblasts, luminescence, dry powder, set 2, dose response (AID 743417).
In the case of `Cc1cc(C)nc(/N=C(\N)Nc2ccc(-c3ccccc3)cc2)n1`, the half-maximal activity concentration (AC50) (usually the midpoint of the concentration-response curve, whichever way the signal moves) is 4.45 µM. On to `Cc1cc(NC(=O)CCN2CCN(C/C=C/c3ccccc3)CC2)ccc1Br`, for which the AC50 is 10.2 µM. The figure for `C=CCn1c(C)cc(C2=NNC(=NCC)SC2)c1C` is below 0.26 µM; for `COc1ccc(C(NC(C)=O)c2ccc3cccnc3c2O)c(OC)c1` (stereo unspecified) it is 1.74 µM; for `COc1ccc(OC)c(C(c2nnnn2Cc2ccccc2)N2CCN(C3CCCCC3)CC2)c1` (stereo unspecified) it is > 70 µM (inactive). The value for `O=C(Nc1ccc2nc3n(c(=O)c2c1)CCCCC3)c1cc([N+](=O)[O-])ccc1F` was 14.1 µM. Regarding `Cc1ccc(CNC(=O)c2cc3c(C)nc4ccccc4c3o2)cc1`, the AC50 was 2.49 µM.

As for `CCOC(=O)CC1CCCCN1C(=O)c1cc(COc2cccc3cnccc23)on1` (stereo unspecified), the AC50 is 0.713 µM. The figure for `Cc1cc(NC(=O)CCCS(=O)(=O)c2nc(-c3cccs3)cc(C(F)(F)F)n2)no1` is 1.73 µM; for `CCSc1nnc(NC(=O)c2nc(S(=O)(=O)Cc3ccc(F)cc3)ncc2Cl)s1` it is 4.96 µM. The value for `CCn1cc(CN(C)S(=O)(=O)c2ccc3ccccc3c2)c(C)n1` was 1.56 µM; that for `c1ccc(CNc2ncnc3ccccc23)cc1` was 1.5 µM. The figure for `CSc1ccc(CN(C)C(=O)c2cccc(S(=O)(=O)N3CCN(Cc4ccccc4)CC3)c2)cc1` is 2.89 µM; for `O=C(O)C1(Nc2ccccc2Cl)CCCC1` it is 29.5 µM. As to `COc1ccc(/C=C/C(=O)NC(=S)NNC(=O)c2cnccn2)cc1`, the half-maximal activity concentration (AC50) was 15.5 µM. The figure for `CNc1ccccc1C(C)(C)c1cc(-c2cccc(OC)c2)no1` is 1.92 µM; for `Cc1ccc2[nH]c3c(N4CCc5ccccc5C4)ncnc3c2c1` it is 1.18 µM; for `NS(=O)(=O)c1ccc(CNC(=S)NC(=O)c2ccco2)cc1` it is 22.9 µM. The figure for `O=[N+]([O-])/C=C/c1cn(Cc2ccc(Cl)cc2)c2ccccc12` is 8.32 µM; for `CC(C)(C)n1nnnc1C(c1ccc(C(F)(F)F)cc1)N(Cc1ccccc1)Cc1ccco1` (stereo unspecified) it is 4.74 µM. The figure for `CCCCNc1c(-c2cccc(-c3ccc(OC)cc3)c2)nc2cc(C)ccn12` is 12 µM. In the case of `C=CCC[C@H](Cc1ccc(F)cc1)C(=O)OC[C@H](Cc1c[nH]c2ccccc12)NC(=O)[C@H](CC=C)CC(=O)N(CCO)Cc1ccccc1`, the AC50 is 11.7 µM. The value for `CCCCCn1c(=O)c(C(=O)Nc2cnccn2)c(O)c2ccccc21` was 1.54 µM. The value for `O=C(c1ccc(Cl)cc1)C1CCCN(Cc2cccc3ncccc23)C1` (stereo unspecified) was 4.52 µM. For `O=C(Cc1ccc(Cl)cc1Cl)Nc1ccncc1Cl`, the AC50 is 1.63 µM.

As for `CC(C)C1C(=O)N(Cc2cn(CCC3OCCO3)nn2)CCS(=O)(=O)N1Cc1ccc(-c2ccc(Cl)c(Cl)c2)cc1` (stereo unspecified), the concentration at half-maximal activity (AC50) was 1.28 µM. The figure for `CCCCCCN1C[C@@H](n2cc(-c3ccc(F)cc3)nn2)[C@H](O)C[C@@H]1c1ccc(Cl)cc1` is 12.5 µM; for `CCCc1nc2ccc(Br)cc2c(=O)n1-c1ccc([N+](=O)[O-])c(C(F)(F)F)c1` it is 15.7 µM; for `Cc1cc2sc3ccc(C#CC4(O)CCCCC4)cc3c(=O)c2cc1C` it is below 0.26 µM. The figure for `C[C@@H]1CN([C@@H](C)CO)C(=O)c2cc(NC(=O)Nc3ccc(F)cc3)ccc2O[C@@H]1CN(C)Cc1ccc(Oc2ccccc2)cc1` is 9.38 µM; for `O=C(Nc1ccc(S(=O)(=O)N2CCN(Cc3ccccc3)CC2)cc1)c1cnccn1` it is 1.65 µM. For `COc1ccccc1-c1cc(C(F)(F)F)nc(S(C)(=O)=O)n1`, the half-maximal activity concentration (AC50) is 4.06 µM. `CCCCNS(=O)(=O)c1ccc(S(=O)(=O)NCc2ccncc2)cc1`: the AC50 was 2.4 µM. For the molecule `COc1ccccc1NS(=O)(=O)c1cccc(C(=O)NC2CCN(Cc3ccccc3)CC2)c1`, the AC50 was 1.95 µM.

On to `CC[n+]1c(/C=C/Nc2ccccc2)sc2ccccc21`, for which the AC50 is 2.06 µM. The figure for `O=C(CN(C(=O)c1ccc(Cl)cc1)C1CCCCC1)Nc1ccc(Cl)c([N+](=O)[O-])c1` is 8.11 µM.

(Values after PubChem BioAssay AID743417 (Broad Institute, 2014).)
